Test system: rat myocardial ischemia/reperfusion injury
Assay: Rat myocardial ischemia/reperfusion injury, extent of myocardial infarction (TTC staining)
Assay type: in vivo
Details: 1 mg/kg everyday, peritoneal, five days to the day before; 30 min ischemia, 24 hours reperfusion; control group approx. 35.6%
Procedure: Rats (male, 250 to 280 g) were subjected to coronary artery ligation according to J. Pathol. 180, 305-310 (1996). Briefly, rats were anesthetized with sodium pentobarbital (40 mg Kg^−1, intraperitoneally), intubated, and ventilated with room air (tidal volume, 20 ml/Kg, […]) with a respirator (SN-480-7, Shinano Manufacturing Co., Ltd., Tokyo, Japan). After lateral thoracotomy and pericardiectomy, a 6-0 silk stitch was placed near the intramyocardial location of the left coronary artery beneath the left atrial appendage. Coronary artery occlusion was performed by pressing a short length of tube over the ends of the suture and clamping it firmly against the heart. Reperfusion was achieved by removing the clamp. The standard limb lead II electrocardiogram was monitored continuously. The ischemia and reperfusion of the regional myocardium were confirmed by following the changes of the ST segment level on the electrocardiogram and observing the change in the color of the myocardium.
eIF5A is deoxyhypusinated by deoxyhypusine synthase (DHS) in the cytoplasm (deoxyhypusine eIF5A) and then hypusinated by deoxyhypusine hydroxylase (DOHH) (hypusinated eIF5A). eIF5A is further secreted extracellularly by an oxidative stress stimulus as secreted eIF5A and acquire the apoptosis-inducing activity. […]

N=C(N)NCCCCCCCN [GC7, N1-guanyl-1,7-diaminoheptane]
extent of myocardial infarction: approx. 13.4%

Source: patent publication US8492521B2, “Oxidative stress responsive apoptosis inducing protein eIF5A” (priority 2008, dated 2013)
